Reference: patent US11739051B2 (ALEXION PHARMA INTERNATIONAL OPERATIONS UNLIMITED COMPANY, priority 2018, dated 2023)

What was measured:
[1] = Particle size distribution (PSD) by LALLS; type: physicochemical; settings: for Dx (10)/μm: 10th percentile of particle size, paraffin oil dispersion; for Dx (50)/μm: 50th percentile of particle size; for Dx (90)/μm: 90th percentile of particle size; for >100 μm (%): percentage of particles greater than 100 μm; for <2 μm (%): percentage of particles less than 2 μm
From the text: As used herein, the term “Dx(10)/μm” refers to the 10th percentile of particle size (D10) measured in micrometers (μm). As used herein, the terms “Dx(50)/μm” or “median particle size” refer to the 50th percentile particle size (D50). As used herein, the term “Dx(90)/μm” refers to the 90th percentile of particle size (D90).
As used herein, the term “<2 μm (%)” refers to the percentage (%) of particles that are less than 2 μm. As used herein, the term “>100 μm (%)” refers to the percentage (%) of particles that are greater than 100 μm. As used herein, the percentage of particles refers to the percentage based on the population, or number, of particles.
The sample dispersion medium was paraffin oil. […] This was repeated until a stable reading was obtained.
The PSD measurements were done using the following settings: background measurement time, 20 seconds(s); sample measurement time, 20 s; dispersant refractive index, 1.45; particle refractive index, N/A (Fraunhofer), absorption, N/A (Fraunhofer); stirrer speed, 2500 rpm; analysis model: general purpose.

[2] = Specific surface area (SSA) by BET; type: physicochemical; settings: N2 adsorption
Description: As used herein, the ten “SSA (m^2/g)” refers to specific surface area (SSA) measured in square meters (m^2) per gram (g). SSA was measured by BET according to the method described in Example 4.
Specific Surface Area (SSA) was analyzed by BET on a surface area analyzer (Gemini 2375™ from Micromeritics Instrument Corp.). […] Each sample was filled into a glass tube and “degassed” at 30° C. for 1 h under continuous N2 (g) flow in order to remove all loosely bound molecules on the external surface and from potential channels in the material. Simultaneously, the saturation pressure for the liquid nitrogen used was determined. After weighing the degassed samples, the degassed samples were inserted into the measuring position at −196° C. (boiling point for liquid nitrogen), evacuated and then exposed to a range of partial pressures basically covering the whole range from almost zero to close to 1 under adsorption mode. The lower pressures were used for SSA determination. Higher pressures were used for potential micro pore determination. In order to ascribe the right amount of nitrogen to the substances, the free volume in the tubes was measured with helium gas prior to nitrogen adsorption. The appropriate thickness values for the adsorbed layer (above the point where no absorption took place in micro pores anymore) was determined from a t-plot and subsequently used to correct the calculation by separating the adsorbed nitrogen molecules into either absorbed into potential pore like structures (the “micro pore volume”) or adsorbed onto actual external surface.

[3] = Crystallinity by X-ray powder diffraction (XRPD); type: physicochemical; settings: AREAcryst/AREAtotal*100, listed as A-2
Description: Crystallinity was analyzed by X-ray powder diffraction (XRPD) using a Cu-anode (45 kV/40 mA), a Kα-1 monochromator and silicon-based position-sensitive 1D detector (Malvern Panalytical, X'Celerator™). The 2-theta range was 2-35° using a scan speed of 0.02°/s and a step size of 0.017°. Slow spinning sample holders were used. […] Each sample was smeared out using a Teflon bar, producing a flat powdered surface on zero background wafers of silicon (Si). The measurements were performed using a programmable incident divergence slit.
The crystallinity was evaluated using Panalytical HighScore Plus™ software (The HighScore suite; T. Degen, M. Sadki, E. Bron, U. König, G. Nénert; Powder Diffraction, Volume 29, Supplement S2, December 2014, pp S13-S18). This method is based on the following steps: 1) Calculation of the net area of the signals from the crystalline part of the sample. This area is defined as “AREAcryst.” 2) Calculation of the net total area, that is, area from the amorphous “humps” plus the net peak area from step 1. This area is defined as “AREAtotal.” In the calculation of above areas, an automatic correction of the background is made by using data collected for an empty sample holder. 3) The percent crystallinity of the sample is calculated as: (AREAcryst/AREAtotal)*100.
XRPD crystallinity results for each batch are reported Table 1.

[4] = Stability of crystalline particles after forced degradation at 40° C. and 75% relative humidity (HPLC impurities); type: physicochemical; settings: listed as A-2
Description: Stability analysis was performed on crystalline particles after forced degradation at 40° C. and 75% relative humidity over 3 days.

[5] = 5 g lab-scale Process C crystallization; for D10 (μm) / D50 (μm) / D90 (μm): ethanol charge time and temperature vary per example; for >100 (%): particles greater than 100 μm; for <2 (%): particles less than 2 μm; for D90/D50: ratio of D90 to D50
Description: Particle size distribution (PSD) was analyzed by LALLS on a commercial laser particle size analyzer (Malvern Instruments Ltd. Mastersizer 3000™) instrument, equipped with a 300 mm reverse Fourier lens with a small volume automated liquid sample dispersion unit (Malvern, Hydro MV™). The sample dispersion medium was paraffin oil. Samples taken from each of the batches were analyzed sequentially. Each sample was introduced directly into the small volume sample dispersion unit to study the disaggregation under influence of stirring only. Thereafter sonication was applied at low power (20%) in 60 seconds. This was repeated until a stable reading was obtained.
(§1) Each mixture was then transferred to a 250 mL lab reactor via a series of 0.45 and 0.22 μm HPLC filters for polish filtration, and 2×1 mL water was used for rinsing (total amount water added: 19 mL, which gives an ethanol amount of 76 mL for an ethanol/water end-ratio of 80/20). After heating of the mixture to correct jacket temperature (35° C., 45° C., 50° C. or 55° C.), ethanol (76 mL) was charged for 1, 2.5 or 4 hours. A syringe pump connected to a 50-mL plastic syringe was used for the charging. Linear cooling profiles were then applied and all examples were cooled at a rate of 0.333° C./min down to 15° C. All mixtures were stirred for an additional 10 minutes at 15° C. before isolation of the solid on a P3 glass filter funnel. In example 8, the same conditions as described above were used, but the speed of the stirrer of the lab reactor was doubled. In example 10, the same conditions as described above were used, but a type different stirrer was used that increased the mass transfer in the lab reactor.

[6] = isolated solid after 5 g lab-scale Process C crystallization
Description: Purity was analyzed by reverse-phase high-performance liquid chromatography (HLPC) using Agilent® 1100 series HPLC system and a reversed-phase column (Aquasil C18, 4.6×250 mm, 5 μm) at 25°, with the absorbance detector set to 242 or 301 nm. […] The amount of BC-TTM and impurities in the sample solution was determined by the regression line and the area of the standard peaks in the sample chromatogram.
as §1

Row | Substance | D10 (μm) [5] [μm] | D50 (μm) [5] [μm] | D90 (μm) [5] [μm] | >100 (%) [5] [%] | <2 (%) [5] [%] | D90/D50 [5] | TM2 (% w/w) [6] [% w/w] | TM3 (% w/w) [6] [% w/w] | Total impurities (% w/w) [6] [% w/w] | other results
1 | bis-choline tetrathiomolybdate [Batch A-1] | – | – | – | – | – | – | – | – | – | Dx (10)/μm ([1]; listed as A-1): 10.3 μm; Dx (50)/μm ([1]; listed as A-1): 59.4 μm; Dx (90)/μm ([1]; listed as A-1): 503 μm; >100 μm (%) ([1]; listed as A-1): 42.1%; <2 μm (%) ([1]; listed as A-1): 2%; SSA (m^2/g) ([2]; listed as A-1): 0.52 m^2/g
2 | bis-choline tetrathiomolybdate [Batch A-2] | – | – | – | – | – | – | – | – | – | Estimated Crystallinity (%) [3]: 86%; Dx (10)/μm ([1]; listed as A-2): 25.5 μm; Dx (50)/μm ([1]; listed as A-2): 86.6 μm; Dx (90)/μm ([1]; listed as A-2): 442.0 μm; >100 μm (%) ([1]; listed as A-2): 46.8%; <2 μm (%) ([1]; listed as A-2): 0.0%; SSA (m^2/g) ([2]; listed as A-2): 0.26 m^2/g; Mo2S6O2 dimer (area %) ([4]; Day 3, 40° C. / 75% RH): 0.09 area %; TM2 (area %) ([4]; Day 3, 40° C. / 75% RH): 2.38 area %; TM3 (area %) ([4]; Day 3, 40° C. / 75% RH): 2.78 area %; Total impurities (area %) ([4]; Day 3, 40° C. / 75% RH): 5.54 area %; TM2 (area %) ([4]; Initial): 0.29 area %; TM3 (area %) ([4]; Initial): 2.04 area %; Total impurities (area %) ([4]; Initial): 2.34 area %
3 | bis-choline tetrathiomolybdate [Batch C-3] | – | – | – | – | – | – | – | – | – | Dx (10)/μm ([1]; listed as C-3): 25.7 μm; Dx (50)/μm ([1]; listed as C-3): 52.9 μm; Dx (90)/μm ([1]; listed as C-3): 97.7 μm; >100 μm (%) ([1]; listed as C-3): 9.2%; <2 μm (%) ([1]; listed as C-3): 1.0%; SSA (m^2/g) ([2]; listed as C-3): 0.12 m^2/g
4 | bis-choline tetrathiomolybdate [compound 1] | 21 | 45 | 77 | 1.4 | 1.3 | 1.7 | <0.05 | 0.18 | 0.18 | –
5 | bis-choline tetrathiomolybdate [compound 2] | 25 | 46 | 79 | 1.9 | 1.4 | 1.7 | 0.13 | 0.45 | 0.57 | –
6 | bis-choline tetrathiomolybdate [compound 3] | 37 | 79 | 135 | 30 | 0.4 | 1.7 | <0.05 | 0.14 | 0.14 | –
7 | bis-choline tetrathiomolybdate [compound 4] | 33 | 56 | 92 | 5.8 | 0.8 | 1.6 | 0.19 | 0.46 | 0.70 | –
8 | bis-choline tetrathiomolybdate [compound 5] | 38 | 80 | 136 | 31 | 0.0 | 1.7 | <0.05 | 0.18 | 0.18 | –
9 | bis-choline tetrathiomolybdate [compound 6] | 42 | 87 | 148 | 38 | 0.0 | 1.7 | <0.05 | 0.19 | 0.19 | –
10 | bis-choline tetrathiomolybdate [compound 7] | 41 | 85 | 143 | 36 | 0.0 | 1.7 | <0.05 | 0.18 | 0.18 | –
11 | bis-choline tetrathiomolybdate [compound 8] | 57 | 102 | 164 | 52 | 0.0 | 1.6 | <0.05 | 0.18 | 0.18 | –
12 | bis-choline tetrathiomolybdate [compound 9] | 33 | 61 | 101 | 11 | 1.0 | 1.7 | 0.12 | 0.25 | 0.37 | –
13 | bis-choline tetrathiomolybdate [compound 10] | 50 | 95 | 161 | 45 | 0.0 | 1.7 | <0.05 | 0.16 | 0.16 | –
